From US10053422B2, “Compounds for the treatment of mTOR pathway related diseases” (Pitney Pharmaceuticals Pty Limited, priority 2012, dated 2018)
“Also recorded” adds a separate entry of the source. Read-outs that look alike come from different tables or passages of the source.

Experiments:
OVCAR-3 tumors = test: s.c. OVCAR-3 xenograft growth in nude mice; format: in vivo, female nude mice
Description: 2.5 million log-phase growing OVCAR-3 cells were injected s.c. into the left flank of each mouse. Tumor growth was monitored by caliper measurements and tumor volumes were determined through measuring orthogonal diameters. Estimated tumor volume was calculated based on the formula ½ (Length×Width2), where width is the shorter of the two orthogonal measurements. Treatment was initiated 7 days post tumor cell injection before which, mice were randomized and assigned to treatment or the control group (6 per group). […] Control group were treated with the vehicle only.
Log-phase growing OVCAR-3 cells were injected s.c. into the left flank of each mouse. Tumor growth was monitored by caliper measurements and tumor volumes were determined through measuring orthogonal diameters. Estimated tumor volume was calculated based on the formula ½ (Length×Width2), where width is the shorter of the two orthogonal measurements. Treatment was initiated 7 days post tumor cell injection before which, mice were randomized and assigned to treatment or the control group (6 per group). […] Control group were treated with the vehicle only.
OVCAR-3 cells were injected s.c. into the left flank of each mouse. Tumor growth was monitored by caliper measurements and tumor volumes were determined of orthogonal diameters, and the estimated tumor volume was calculated based on the formula ½ (Length×Width2), where width is the shorter of the two orthogonal measurements. Treatment was initiated 7 days post tumor cell injection before which, mice were randomized and assigned to treatment or the control group (6 per group). […] Control group were treated orally with the vehicle only.
Mice were inoculated in the left flank with 2.5 million log-phase growing human OVCAR-3 cells. Tumor growth was monitored by caliper measurements and tumor volumes were determined through measuring orthogonal diameters. Estimated tumor volume was calculated based on the formula ½ (Length×Width2), where width is the shorter of the two orthogonal measurements. Treatment was initiated 7 days post tumor cell injection before which, mice were randomized and assigned to treatment or the control group (5-6 per group).
Female nude mice (6 weeks old) were purchased from Biological Resources (Faculty of Medicine, University of New South Wales). An institutional animal ethics approval covered all procedures carried out on mice. […] Animals were weighed once weekly while their tumor volumes were determined twice weekly. Tumor growth was monitored by caliper measurements of orthogonal diameters, and the estimated tumor volume was calculated based on the formula ½ (Length×Width^2), where width is the shorter of the two orthogonal measurements. Based on institutional ethics approval, mice were euthanized before the tumor volume reached 500 mm^3. Treatment was initiated on day 8 after tumor cell injection when mice were randomized and assigned to treatment or the control group (6 per group). Monepantel was suspended in sterile 0.5% (w/v) hydroperoxymethyl cellulose (HPMC). Drug was administered i.p. 3 times weekly at 25 or 50 mg/kg. Control group was treated with sterile vehicle (0.5% HPMC). Mice were treated for a period of 3 weeks. Twenty four hours post-last drug administration, mice were euthanized and their tumors excised and frozen at −80° C. until analysis.
In alternative experiments, treatment was initiated on day 8 post tumor cell inoculation when mice were randomized and assigned to one of MPL or vehicle treated groups (5-6 mice per group). MPL was suspended in hydroperoxy methylcellulose (0.5% w/v HPMC), sterilized by sonnicator and administered every other day either intraperitoneally (i.p) or orally as gavage (100 μL).

A2780 cells = test: SRB cell proliferation assay, A2780; format: cell-based, human
Description: (§1) Cell proliferation was assessed using the sulforhodamine B (SRB) assay. Cells seeded in 96-well plate (2,000-3,000 cell/well) were treated with MPL (0, 1, 5, 10, 25, 50 and 100 μmol/L) for 72 h. Cells were then fixed, washed and stained with 100 μl of 0.4% (w/v) SRB dissolved in 1% acetic acid. Unbound dye was removed by five washes with 1% acetic acid before air drying. Bound SRB was solubilized with 100 μl of 10 mM Tris base (pH 10.5) and the absorbance read at 570 nm. Exactly the same procedure was used to assess MPL-SO2. Both agents were dissolved in ethanol and diluted with media to give the final concentrations required for cell culture assays.

c-Myc and cyclin D1 = test: Western blot of c-Myc and cyclin D1 in OVCAR-3 cells; format: cell-based, human; conditions: 0, 5, 10, 15 and 25 μM MPL for 48 hours
Description: In further experiments, after treatment with the indicated concentrations of MPL, cell lysates were prepared and probed with antibodies for c-Myc, cyclin D1, cyclin E, cdk2, cdk4, IGF-1R (Cell Signalling Technology), and (anta Cruz Biotechnology, Australia).

[1] = tested on: HUVEC (human umbilical vein endothelial cells); test: SRB cell proliferation assay, HUVEC; format: cell-based
Description: as §1

[2] = tested on: CHO (Chinese hamster ovarian cells); test: SRB cell proliferation assay, CHO; format: cell-based; conditions: Cricetulus griseus; CHO = Chinese hamster ovarian cells (Table 3); read-out: IC50 μM CHO
Description: as §1

OVCAR-3 or A2780 cells = test: Colony formation assay; format: cell-based, human
Description: FIG. 2A, FIG. 2B, and FIG. 2C show the effect of MPL on the colony formation activity of OVCAR-3 cells. Following incubation of cells with MPL (0, 5, 10 and 25 μmol/L) for 72 hours, cells were washed, transferred to agar plates, cultured with their regular growth medium and incubated under standard conditions for 2 weeks. Cells were then fixed with 100% methanol and stained with 1% crystal violet. Colonies (a cluster of cells greater than 50) were counted under a microscope (magnification ×5). The number of colonies counted for different experimental groups is expressed as a percentage of the control.
Following incubation of cells with MPL (0, 5, 10, 25 μM) for 72 h, cells were washed and then transferred to agar plates, cultured with their regular growth medium and incubated under standard conditions for 2 weeks. Cells were then fixed with 100% methanol and stained with 1% crystal violet. Colonies (cluster of cells greater than 50) were counted under microscope (magnification ×5). Number of colonies counted for different experimental groups is expressed as % of control.
For colony formation assay, […], such as OVCAR-3 or A2780 cells, were plated in 100 mm Petri dishes and allowed to attach overnight. […] Colonies consisting of more than 50 cells were counted under an inverted microscope. […]

mTOR and p70S6K = test: Western blot of mTOR and p70S6K phosphorylation in OVCAR-3 cells; format: cell-based, human; conditions: 10 μM MPL for 1, 4 or 24 hours
Description: Western blot analysis of cell lysates prepared from OVCAR-3 cells treated with 10 μM MPL for 1, 4 or 24 hours under cell culture conditions.

PET cells (mesothelioma) = test: SRB cell proliferation assay, PET; format: cell-based; conditions: for IC50: PET
Description: as §1

1A9 cells = test: SRB cell proliferation assay, 1A9; format: cell-based; conditions: Homo sapiens
Description: as §1

[3] = tested on: PC-3 prostate cancer cells; test: SRB cell proliferation assay, PC-3; format: cell-based
Description: as §1

U87 cells (glioblastoma) = test: SRB cell proliferation assay, U87; format: cell-based; conditions: for IC50: Homo sapiens, U-87 MG
Description: as §1

[4] = highly resistant to chemotherapy

## C[C@](C#N)(COc1cc(C#N)ccc1C(F)(F)F)NC(=O)c1ccc(SC(F)(F)F)cc1 [MPL, N-[(1S)-1-Cyano-2-(5-cyano-2-trifluoromethyl-phenoxy)-1-methyl-ethyl]-4-trifluoromethylsulfanyl-benzamide]
OVCAR-3 tumors; 25 mg/kg i.p., three times weekly (trial with 2.5 or 25 mg/kg)
  tumor growth, initial trial: particularly effective
OVCAR-3 tumors; 50 mg/kg dose (both i.p. and oral), three times weekly
  tumor growth: profoundly retarding tumor growth
OVCAR-3 tumors; 50 mg/kg i.p. (trial with 25 and 50 mg/kg)
  tumor growth, second trial: more effective in retarding tumor growth
OVCAR-3 tumors; animal models
  doses at which anticancer effects are observed in animal models: 5 to 50 mg/kg
OVCAR-3 tumors; tumor tissue from the in vivo trials
  tumor histology: massive areas of tumor cell death; also recorded: extensive necrosis
A2780 cells; A2780, human epithelial ovarian cancer (Table 3), read-out: IC50 μM A2780
  IC50: 11.3 ± 0.9 µM
A2780 cells; Homo sapiens, A2780, ovarian cancer, 72 h, SRB assay (Table 1), read-out: IC50
  IC50: 10 µM
c-Myc and cyclin D1
  c-Myc and cyclin D1 expression: down-regulation of c-Myc and cyclin D1 expression
[1]; HUVEC = human umbilical vein endothelial cells (Table 3), read-out: IC50 μM HUVEC
  IC50: 65 µM
[1]; Homo sapiens, HUVEC (Table 2), read-out: IC50 in suppressing proliferation
  IC50: 87 µM
[1]; Homo sapiens, HUVEC, 72 h, SRB assay (Table 1), read-out: IC50
  IC50: 87.8 µM
[2]
  IC50: 34.6 µM
OVCAR-3 or A2780 cells; 72 h exposure (0, 5, 10, 25 μM), then 2 weeks drug free
  colony formation: profoundly hinders colony formation; also recorded: concentration-dependent inhibition of colony formation
OVCAR-3 or A2780 cells; higher concentrations of MPL, 72 h exposure
  clonogenic ability at higher concentrations: almost complete loss of clonogenic ability
mTOR and p70S6K
  phosphorylation [activation] of mTOR and p70S6K: inhibition of phosphorylation
PET cells (mesothelioma); mesothelioma (Table 2), read-out: IC50 in suppressing proliferation
  IC50: 26 µM
PET cells (mesothelioma); mesothelioma, 72 h, SRB assay (Table 1), read-out: IC50
  IC50: 26.3 µM
PET cells (mesothelioma); [4]
  replication of PET cells: profoundly suppressed
1A9 cells; 1A9, ovarian cancer (Table 2), read-out: IC50 in suppressing proliferation
  IC50: 2.5 ± 0.45 µM
1A9 cells; 1A9, ovarian cancer, 72 h, SRB assay (Table 1), read-out: IC50
  IC50: 1.8 µM
[3]; PC-3, prostate cancer (Table 2), read-out: IC50 in suppressing proliferation
  IC50: 21 µM
[3]; PC-3, prostate cancer, 72 h, SRB assay (Table 1), read-out: IC50
  IC50: 21.6 µM
[3]; chemo-resistant, androgen insensitive PC-3
  effect on PC-3 cells: very effective
U87 cells (glioblastoma); U87, glioblastoma, 72 h, SRB assay (Table 1), read-out: IC50
  IC50: 26.2 µM
U87 cells (glioblastoma); U87, glioma (Table 2), read-out: IC50 in suppressing proliferation
  IC50: 18 µM
U87 cells (glioblastoma); [4]
  replication of U87 cells: profoundly suppressed
